Assay results published in ChEMBL document CHEMBL4706505, “F10, a new camptothecin derivative, was identified as a new orally-bioavailable, potent antitumor agent” (Eur J Med Chem, 2020).
In brackets after ≈: the same amount, converted by molar mass.

How the values were obtained:
A549 = assay: Cytotoxicity against human A549 assessed as reduction in cell viability measured after 72 hrs by MTT assay; assay type: functional, cell-based; conditions: A549, 72 h
HCT-116 [1] = assay: Cytotoxicity against human HCT-116 assessed as reduction in cell viability measured after 72 hrs by MTT assay; assay type: functional, cell-based; conditions: HCT-116, 72 h
LoVo = assay: Cytotoxicity against human LoVo assessed as reduction in cell viability measured after 72 hrs by MTT assay; assay type: functional, cell-based
COLO 205 = assay: Cytotoxicity against human COLO 205 assessed as reduction in cell viability measured after 72 hrs by MTT assay; assay type: functional, cell-based; conditions: COLO 205, 72 h
Raji [2] = assay: Cytotoxicity against human Raji assessed as reduction in cell viability measured after 72 hrs by MTT assay; assay type: functional, cell-based
[3] = molecular target: T1, DNA topoisomerase 1 (Homo sapiens) (UniProt P11387); assay: Inhibition of human recombinant topoisomerase I using DNA pBR322 as substrate assessed as relaxed DNA at 100 uM incubated for 30 mins by gel electrophoresis analysis relative to control
T1 sequence (whole entry): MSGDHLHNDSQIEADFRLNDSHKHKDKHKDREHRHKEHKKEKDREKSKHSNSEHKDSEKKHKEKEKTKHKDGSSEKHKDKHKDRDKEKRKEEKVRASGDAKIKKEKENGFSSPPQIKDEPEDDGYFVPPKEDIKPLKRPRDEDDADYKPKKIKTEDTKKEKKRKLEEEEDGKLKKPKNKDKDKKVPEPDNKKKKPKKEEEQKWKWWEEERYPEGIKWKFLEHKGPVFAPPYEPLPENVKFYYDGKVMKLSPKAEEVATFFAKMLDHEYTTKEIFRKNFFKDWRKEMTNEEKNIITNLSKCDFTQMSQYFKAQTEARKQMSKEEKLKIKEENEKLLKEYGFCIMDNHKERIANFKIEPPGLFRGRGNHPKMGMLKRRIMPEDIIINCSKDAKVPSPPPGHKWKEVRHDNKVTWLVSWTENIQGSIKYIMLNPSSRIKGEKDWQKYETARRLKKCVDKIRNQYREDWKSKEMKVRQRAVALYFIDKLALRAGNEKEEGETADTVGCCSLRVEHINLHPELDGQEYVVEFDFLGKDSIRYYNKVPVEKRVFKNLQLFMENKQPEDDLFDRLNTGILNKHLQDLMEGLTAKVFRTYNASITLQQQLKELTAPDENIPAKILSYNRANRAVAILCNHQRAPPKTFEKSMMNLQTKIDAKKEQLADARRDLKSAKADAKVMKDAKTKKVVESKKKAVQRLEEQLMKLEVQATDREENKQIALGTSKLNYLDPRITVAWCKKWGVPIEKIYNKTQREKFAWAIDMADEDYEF

HCT-116 [4] = assay: Induction of apoptosis in human HCT-116 cells assessed as late apoptotic cells level at 0.001 uM incubated for 24 hrs by Annexin V-FITC/PI staining based flow cytometry (reference value: 0.07%); assay type: functional
HCT-116 [5] = assay: Induction of apoptosis in human HCT-116 cells assessed as early apoptotic cells level at 0.03 uM incubated for 24 hrs by Annexin V-FITC/PI staining based flow cytometry (reference value: 0.17%); assay type: functional
[6] = Solubility of compound in phosphate buffer at pH 4.5 incubated for 24 hrs under shaking condition by HPLC analysis; assay type: physicochemical
[7] = Solubility of compound in water incubated for 24 hrs under shaking condition by HPLC analysis; assay type: physicochemical
HCT-116 [8] = assay: Antitumor activity against human HCT-116 cells xenografted in nude BALB/c mouse assessed as tumor growth inhibition at 8 mg/kg, po dosed once the other day for 12 times upto 24 days; assay type: functional; parameters: scale not given: the % may be the effect or the level left; conditions: time day <=24
[9] = Toxicity in NPG mouse xenografted with human Raji cells assessed as body weight loss at 2 mg/kg, ip measured on the day 1; assay type: organism-based; conditions: in vivo
HCT-116 [10] = assay: Antitumor activity against human HCT-116 cells xenografted in nude BALB/c mouse assessed as tumor growth inhibition at 1 mg/kg, ip dosed once the other day for 24 days; assay type: functional; conditions: HCT-116, ip, 576 h, time 24 day, read-out: TGI
[11] = Toxicity in NPG mouse xenografted with human Raji cells assessed as body weight loss at 8 mg/kg, ig measured on the 1 day; assay type: organism-based; conditions: in vivo, po, 24 h
[12] = Toxicity in NPG mouse xenografted with human Raji cells assessed as body weight loss at 4 mg/kg, ip measured after 5 day; assay type: organism-based; conditions: in vivo, 120 h
[13] = Toxicity in NPG mouse xenografted with human Raji cells assessed as body weight loss at 8 mg/kg, ig measured after 5 day; assay type: organism-based; conditions: in vivo, po, 120 h
Raji [14] = assay: Antitumor activity against NPG mouse xenografted with human Raji cell assessed as decrease in tumor volume at 8 mg/kg, ig measured on the 1 day; assay type: functional
Raji [15] = assay: Antitumor activity against NPG mouse xenografted with human Raji cell assessed as decrease in tumor volume at 4 mg/kg, ip measured after 5 day; assay type: functional
Raji [16] = assay: Antitumor activity against NPG mouse xenografted with human Raji cell assessed as decrease in tumor volume at 4 mg/kg, ig measured after 5 day; assay type: functional
Raji [17] = assay: Antitumor activity against NPG mouse xenografted with human Raji cell assessed as tumor growth inhibition at 4 mg/kg, ip measured after 5 day; assay type: functional; conditions: 120 h, read-out: TGI
HCT-116 [18] = assay: Antitumor activity against human HCT-116 cells xenografted in nude BALB/c mouse assessed as tumor growth inhibition at 0.2 mg/kg, ip dosed once the other day for 24 days; assay type: functional; conditions: HCT-116, ip, 576 h, time 24 day, read-out: TGI
[19] = Toxicity in Kunming mouse assessed as mortality at 30 mg/kg, iv measured once every 30 mins upto 10 days; assay type: organism-based; conditions: in vivo, 0.5 h
HCT-116 [20] = assay: Antitumor activity against human HCT-116 cells xenografted in nude BALB/c mouse assessed as tumor growth inhibition at 0.5 mg/kg, po dosed once the other day for 12 times upto 24 days; assay type: functional; conditions: HCT-116, po, 576 h, time day <=24, read-out: TGI
[21] = Toxicity in Kunming mouse assessed as mortality at 250 mg/kg, po measured once every 30 mins upto 10 days; assay type: organism-based; conditions: in vivo, 0.5 h
HCT-116 [22] = assay: Antitumor activity against human HCT-116 cells xenografted in nude BALB/c mouse assessed as tumor growth inhibition at 2 mg/kg, po dosed once the other day for 12 times upto 24 days; assay type: functional; conditions: HCT-116, po, 576 h, time day <=24, read-out: TGI
[23] = Toxicity in Kunming mouse assessed as mortality at 300 mg/kg, po measured once every 30 mins upto 10 days; assay type: organism-based; conditions: in vivo, 0.5 h
[24] = MRT (0 to infinity) in nude BALB/c mouse serum at 8.0 mg/kg incubated up to 9 hrs, iv administered […] by LC-MS/MS analysis; assay type: ADME, organism-based
[25] = Tmax in nude BALB/c mouse serum at 8.0 mg/kg incubated up to 9 hrs, po administered via gavage by LC-MS/MS analysis; assay type: ADME, organism-based
[26] = MRT (0 to infinity) in nude BALB/c mouse serum at 8.0 mg/kg incubated up to 9 hrs, po administered via gavage by LC-MS/MS analysis; assay type: ADME, organism-based
[27] = Oral bioavailability in nude BALB/c mouse serum at 8.0 mg/kg incubated up to 9 hrs, via gavage by LC-MS/MS analysis; assay type: ADME, organism-based

For `CCc1c2c(nc3ccc(OCC(=O)N4CCCCC4)cc13)-c1cc3c(c(=O)n1C2)COC(=O)[C@]3(O)CC`, which IC50 (A549) is on record?
The IC50 was 11 nM.

What about the IC50 (HCT-116 [1]) of the same compound?
The IC50 was 3 nM.

What about the IC50 (LoVo) of the same compound?
Its IC50 is 81 nM.

And the IC50 (COLO 205)?
Its IC50 is 96 nM.

What about the IC50 (Raji [2]) of the same compound?
The IC50 was 2 nM.

And the inhibition [3]?
Its inhibition is 63.5%.

What about the Activity (HCT-116 [4]) of the same compound?
The Activity was 5.48%.

And the Activity (HCT-116 [5])?
The Activity was 7.55%.

What about the solubility thermodynamic at 24 h [6] of the same compound?
Its solubility thermodynamic at 24 h is 9.86 µg/mL (≈ 19.1 µM).

What about the solubility thermodynamic at 24 h [7] of the same compound?
Its solubility thermodynamic at 24 h is 6.22 µg/mL (≈ 12 µM).

And the Activity (HCT-116 [8])?
The Activity was 96.2%.

What about the Activity [9] of the same compound?
Its Activity is 23.2 g.

What about the inhibition in vivo at 1 mg/kg (HCT-116 [10]) of the same compound?
The inhibition in vivo at 1 mg/kg was 90.2%.

And the Activity [11]?
Its Activity is 24.6 g.

And the Activity [12]?
The Activity was 19.2 g.

What about the Activity [13] of the same compound?
The Activity was 22.5 g.

And the Activity (Raji [14])?
Its Activity is 956 mm3.

And the Activity (Raji [15])?
Its Activity is 729 mm3.

What about the Activity (Raji [16]) of the same compound?
The Activity was 1203 mm3.

And the inhibition in vivo at 4 mg/kg (Raji [17])?
Its inhibition in vivo at 4 mg/kg is 136%.

And the inhibition in vivo at 0.2 mg/kg (HCT-116 [18])?
The inhibition in vivo at 0.2 mg/kg was 71.8%.

What about the Activity [19] of the same compound?
The Activity was “Non-Toxic”.

What about the inhibition in vivo at 0.5 mg/kg (HCT-116 [20]) of the same compound?
Its inhibition in vivo at 0.5 mg/kg is 48.1%.

And the Activity [21]?
The Activity was “Non-Toxic”.

And the inhibition in vivo at 2 mg/kg (HCT-116 [22])?
Its inhibition in vivo at 2 mg/kg is 79.6%.

And the Activity [23]?
Its Activity is “Toxic”.

What about the MRT inf [24] of the same compound?
Its MRT inf is 13.8 min.

What about the Tmax [25] of the same compound?
The Tmax was 19.8 min.

What about the MRT inf [26] of the same compound?
The MRT inf was 69 min.

And the bioavailability [27]?
Its bioavailability is 22.4%.
